The values that follow come from ChEMBL document CHEMBL5380848, “Novel Benzo Five-Membered Heterocycle Derivatives as P-Glycoprotein Inhibitors: Design, Synthesis, Molecular Docking, and Anti-Multidrug Resistance Activity” (J Med Chem, 2023).

The source made the active and inactive calls. The calls are words filed in the database; no cut-off is given here.

The test system of data set [1] is NCI/ADR-RES. Briefly: Effect on ABCB6 gene expression in doxorubicin-resistant human MCF-7/ADR cells at 5 uM incubated for 12 hrs. The class given is functional, cell-based.
Data set [2] is described as follows: Toxicity in BALB/c mouse xenografted with doxorubicin-resistant human MCF-7/ADR cells assessed as kidney morphological changes at 10 mg/kg for every 2 days once injected through abdominal cavity for 14 days by hematoxylin and eosin staining based analysis. The class given is organism-based. Particulars: in vivo, ip, 336 h, time 14 day. A general note: Xenograft models place foreign cells or tissue in a host animal.

In data set [3] the test system is MCF7. Nature of the data set: Cytotoxicity against human MCF7 cells assessed as inhibition rate at 5 uM measured after […] hrs by CCK-8 assay relative to control. The class given is functional.
The nature of data set [4]: Toxicity in BALB/c mouse xenografted with doxorubicin-resistant human MCF-7/ADR cells assessed as liver morphological changes at 10 mg/kg for every 2 days once injected through abdominal cavity for 14 days by hematoxylin and eosin staining based analysis. The class given is organism-based. Particulars: in vivo, ip, 336 h, time 14 day.
Data set [5] has as its system NCI/ADR-RES. Briefly: Effect on P-glycoprotein expression in doxorubicin-resistant human MCF-7/ADR cells at 2.5 to 10 uM incubated for 48 hrs by Western blotting analysis. The class given is functional, cell-based. The following applies: dose 2.5-10 µM.
The subject of data set [6] is NCI/ADR-RES. Nature of the data set: Effect on ABCC4 gene expression in doxorubicin-resistant human MCF-7/ADR cells at 5 uM incubated for 12 hrs. In kind it is functional, cell-based.
Data set [7] relates to NCI/ADR-RES. Nature of the data set: In vivo resistance reversal activity in doxorubicin-resistant human MCF-7/ADR cells xenografted in BALB/c mouse model assessed as potentiation of doxorubicin antitumor effect by measuring reduction in tumor weight at 10 mg/kg for every 2 days once injected through abdominal cavity for 14 days. In kind it is functional, organism-based. Particulars: time 14.0 day.

Data set [8] is described as follows: Toxicity in BALB/c mouse xenografted with doxorubicin-resistant human MCF-7/ADR cells assessed as spleen morphological changes at 10 mg/kg for every 2 days once injected through abdominal cavity for 14 days by hematoxylin and eosin staining based analysis. In kind it is organism-based. The following applies: in vivo, ip, 336 h, time 14 day.
Data set [9] can be described thus: Toxicity in BALB/c mouse xenografted with doxorubicin-resistant human MCF-7/ADR cells assessed as heart morphological changes at 10 mg/kg for every 2 days once injected through abdominal cavity for 14 days by hematoxylin and eosin staining based analysis. The following applies: in vivo, ip, 336 h, time 14 day. The class given is organism-based.
The nature of data set [10]: Toxicity in BALB/c mouse xenografted with doxorubicin-resistant human MCF-7/ADR cells assessed as body weight change at 10 mg/kg for every 2 days once injected through abdominal cavity for 14 days. Particulars: in vivo, ip, 336 h, time 14 day. In kind it is organism-based.
The subject of data set [11] is NCI/ADR-RES. Nature of the data set: Effect on ABCA2 gene expression in doxorubicin-resistant human MCF-7/ADR cells at 5 uM incubated for 12 hrs. The class given is functional, cell-based.
For data set [12], the system named is NCI/ADR-RES. Briefly: Effect on ABCD4 gene expression in doxorubicin-resistant human MCF-7/ADR cells at 5 uM incubated for 12 hrs. In kind it is functional, cell-based.
Data set [13] concerns the target T1, ATP-dependent translocase ABCB1 (Homo sapiens, UniProt P08183). Briefly: Binding affinity to P-glycoprotein in doxorubicin-resistant human MCF-7/ADR cells assessed as thermal stability measured 40 to 60 degC at 0.5 to 2.5 uM incubated for 30 mins by CETSA. In kind it is cell-based. The following applies: nci-adr-res, 0.5 h, dose 0.5-2.5 µM.
Data set [14] addresses T1, ATP-dependent translocase ABCB1. Nature of the data set: Inhibition of P-gp-mediated multidrug resistance in doxorubicin-resistant human MCF7/ADR cells assessed as fold reversal of resistance by measuring doxorubicin IC50 incubated for 48 hrs by CCK-8 assay relative to doxorubicin IC50 in absence of compound. In kind it is cell-based. The following applies: nci-adr-res. A general note: Formazan colour is commonly taken as a measure of viable cells.

The subject of data set [15] is NCI/ADR-RES. Briefly: In vivo resistance reversal activity in doxorubicin-resistant human MCF-7/ADR cells xenografted in BALB/c mouse model assessed as reduction in tumor volume at 10 mg/kg for every 2 days once injected through abdominal cavity for 14 days. The class given is functional, organism-based. The following applies: time 14.0 day.
Data set [16] concerns NCI/ADR-RES. Briefly: Effect on ABCC1 gene expression in doxorubicin-resistant human MCF-7/ADR cells at 5 uM incubated for 12 hrs. The class given is functional, cell-based.
Data set [17] has as its system NCI/ADR-RES. Nature of the data set: In vivo resistance reversal activity in doxorubicin-resistant human MCF-7/ADR cells xenografted in BALB/c mouse model assessed as reduction in tumor weight at 10 mg/kg for every 2 days once injected through abdominal cavity for 14 days. In kind it is functional, organism-based. Particulars: time 14.0 day.
Data set [18] relates to NCI/ADR-RES. Briefly: Cytotoxicity against doxorubicin-resistant human MCF-7/ADR cells assessed as inhibition rate at 5 uM measured after […] hrs by CCK-8 assay relative to control. In kind it is functional.
Data set [19] has as its target T1, ATP-dependent translocase ABCB1. Nature of the data set: Inhibition of P-glycoprotein mediated Rhodamine-123 efflux in doxorubicin-resistant human MCF-7/ADR cells assessed as fluorescence intensity of rhodamine-123 accumulation incubated for 30 mins by flow cytometry analysis. The class given is cell-based. Particulars: nci-adr-res, 0.5 h, at 2.5 to 10 µM, dose 2.5-10 µM.

For data set [20], the system named is NCI/ADR-RES. Nature of the data set: Effect on ABCG2 gene expression in doxorubicin-resistant human MCF-7/ADR cells at 5 uM incubated for 12 hrs. The class given is functional, cell-based.
The nature of data set [21]: Toxicity in BALB/c mouse xenografted with doxorubicin-resistant human MCF-7/ADR cells assessed as lung morphological changes at 10 mg/kg for every 2 days once injected through abdominal cavity for 14 days by hematoxylin and eosin staining based analysis. The following applies: in vivo, ip, 336 h, time 14 day. In kind it is organism-based.
Data set [22] concerns NCI/ADR-RES. Briefly: Effect on ABCF2 gene expression in doxorubicin-resistant human MCF-7/ADR cells at 5 uM incubated for 12 hrs. The class given is functional, cell-based.
In data set [23] the test system is NCI/ADR-RES. Nature of the data set: In vivo resistance reversal activity in doxorubicin-resistant human MCF-7/ADR cells xenografted in BALB/c mouse model assessed as potentiation of doxorubicin antitumor effect by measuring reduction in tumor volume at 10 mg/kg for every 2 days once injected through abdominal cavity for 14 days. The class given is functional, organism-based. Particulars: time 14.0 day.

T1 sequence (P08183 whole entry): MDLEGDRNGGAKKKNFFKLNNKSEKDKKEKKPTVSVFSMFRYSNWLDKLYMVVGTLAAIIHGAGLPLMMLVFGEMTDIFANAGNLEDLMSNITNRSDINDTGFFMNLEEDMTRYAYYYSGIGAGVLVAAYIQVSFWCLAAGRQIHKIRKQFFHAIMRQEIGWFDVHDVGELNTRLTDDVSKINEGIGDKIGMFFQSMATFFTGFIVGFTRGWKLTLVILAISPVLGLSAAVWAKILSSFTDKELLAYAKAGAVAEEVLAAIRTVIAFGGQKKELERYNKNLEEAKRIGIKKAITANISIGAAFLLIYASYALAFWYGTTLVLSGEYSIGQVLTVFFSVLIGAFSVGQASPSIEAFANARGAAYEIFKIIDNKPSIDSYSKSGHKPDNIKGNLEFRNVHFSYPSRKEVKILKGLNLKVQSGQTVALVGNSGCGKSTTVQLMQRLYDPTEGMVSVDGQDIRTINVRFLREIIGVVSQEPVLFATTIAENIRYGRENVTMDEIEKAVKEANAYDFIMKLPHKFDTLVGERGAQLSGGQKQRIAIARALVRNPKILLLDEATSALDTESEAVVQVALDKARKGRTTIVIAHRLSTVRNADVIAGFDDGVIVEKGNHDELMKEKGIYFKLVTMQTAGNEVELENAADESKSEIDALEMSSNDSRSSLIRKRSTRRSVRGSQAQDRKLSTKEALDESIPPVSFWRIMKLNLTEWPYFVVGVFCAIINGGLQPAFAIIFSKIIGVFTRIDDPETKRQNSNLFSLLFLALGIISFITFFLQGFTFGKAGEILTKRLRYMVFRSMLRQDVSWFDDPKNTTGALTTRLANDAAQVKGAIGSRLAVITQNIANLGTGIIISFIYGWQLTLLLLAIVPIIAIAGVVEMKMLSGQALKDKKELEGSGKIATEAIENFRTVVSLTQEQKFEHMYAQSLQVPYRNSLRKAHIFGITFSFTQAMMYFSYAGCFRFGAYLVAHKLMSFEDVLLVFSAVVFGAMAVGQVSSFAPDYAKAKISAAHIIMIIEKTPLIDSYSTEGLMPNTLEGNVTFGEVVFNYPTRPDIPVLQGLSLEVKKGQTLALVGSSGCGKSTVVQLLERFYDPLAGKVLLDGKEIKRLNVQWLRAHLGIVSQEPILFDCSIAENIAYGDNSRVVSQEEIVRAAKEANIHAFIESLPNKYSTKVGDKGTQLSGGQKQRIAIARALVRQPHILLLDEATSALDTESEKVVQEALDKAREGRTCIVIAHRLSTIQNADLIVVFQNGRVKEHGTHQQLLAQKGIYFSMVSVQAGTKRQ

As a reminder, the inhibition is the share of the control response that was lost under treatment. In the case of `COc1cc2c(cc1OC)CN(C(=O)c1cc3cc(-c4ccc(NC(=O)c5ccc(Cl)cc5)cc4)ccc3[nH]1)CC2`, the result in data set [1], in data set [5], in data set [6], in [11], in data set [12] and in data set [15] was inactive. The outcome in [16], in data set [17], in [20] and in data set [22] was inactive. In addition, the Activity result in [2] was “Non-Toxic”; in [4] it was “Non-Toxic”; in data set [8], “Non-Toxic”; in data set [9], “Non-Toxic”; in data set [10] it was “Non-Toxic”; in [13], “Active”. For the same compound, in data set [21], the Activity entry was “Non-Toxic”. Besides, the inhibition at 5 µM in data set [3] turned out to be 21.7%; in data set [18], 25%. For the same compound, the outcome in data set [7] and in data set [23] was Active. In data set [14], the “fold change (FC)” value turned out to be 6011. In [19], the “inhibition (INH)” value is “Dose-Dependent Effect”.
